From ChEMBL document CHEMBL1201862, “PubChem BioAssay data set” (2004)
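Step 1: Grow cells in 96-well plates. Step 2: Expose to compound for 48 hours at 5 concentrations. Step 3: Interpolate endpoints linearly; if unreached, use highest concentration. At the GI50, growth is halved.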 Active and inactive are the calls of the source. No stated cut-off is given here; in the data, active = GI50 up to about 1.1 µM and inactive = higher.

Key:
Test in all cases: growth of human tumour cells (NCI), 48 h
A549 = test system: A549
SF-295 = test system: SF-295
SW-620 = test system: SW-620
786-0 = test system: 786-0
COLO 205 = test system: COLO 205
NCI-H226 = test system: NCI-H226
A498 = test system: A498
U-251 = test system: U-251
SNB-19 = test system: SNB-19
MOLT-4 = test system: MOLT-4
NCI/ADR-RES = test system: NCI/ADR-RES
MCF7 = test system: MCF7
MDA-MB-435 = test system: MDA-MB-435
HCT-116 = test system: HCT-116
RXF 393 = test system: RXF 393
UACC-257 = test system: UACC-257
OVCAR-4 = test system: OVCAR-4
IGROV-1 = test system: IGROV-1
HT-29 = test system: HT-29

| SMILES | GI50 (A549) | GI50 (SF-295) | GI50 (SW-620) | GI50 (786-0) | GI50 (COLO 205) | GI50 (NCI-H226) | GI50 (A498) | GI50 (U-251) | GI50 (SNB-19) | GI50 (MOLT-4) | GI50 (NCI/ADR-RES) | GI50 (MCF7) | GI50 (MDA-MB-435) | GI50 (HCT-116) | GI50 (RXF 393) | GI50 (UACC-257) | GI50 (OVCAR-4) | GI50 (IGROV-1) | GI50 (HT-29) |
| --- | --- | --- | --- | --- | --- | --- | --- | --- | --- | --- | --- | --- | --- | --- | --- | --- | --- | --- | --- |
| O=C(O)CC(C(=O)O)C1c2ccccc2-c2ccccc21 (centres undefined) | 56.4 µM (inactive) | 45.1 µM (inactive) | > 100 µM (inactive) | > 100 µM (inactive) | 81.8 µM (inactive) | > 100 µM (inactive) | > 100 µM (inactive) | 39.3 µM (inactive) | 34 µM (inactive) | 48.2 µM (inactive) | > 100 µM (inactive) | 34.2 µM (inactive) | 77.1 µM (inactive) | > 100 µM (inactive) | > 100 µM (inactive) | > 100 µM (inactive) | > 100 µM (inactive) | 70 µM (inactive) | > 100 µM (inactive) |
| COc1ccc2c(c1)OC(c1cccnc1)C(c1ccccc1)C2=O (centres undefined) | > 100 µM (inactive) | 46.5 µM (inactive) | > 100 µM (inactive) | 86.1 µM (inactive) | > 100 µM (inactive) | 98.9 µM (inactive) | > 100 µM (inactive) | 43.8 µM (inactive) | 66.7 µM (inactive) | > 100 µM (inactive) | > 100 µM (inactive) | > 100 µM (inactive) | > 100 µM (inactive) | 97.5 µM (inactive) | > 100 µM (inactive) | > 100 µM (inactive) | > 100 µM (inactive) | > 100 µM (inactive) | > 100 µM (inactive) |
| Nc1ncnc2c1ncn2[C@@H]1O[C@H](C(=O)O)[C@@H](O)[C@H]1O [5'-CARBOXY ADENOSINE] | > 100 µM (inactive) | > 100 µM (inactive) | > 100 µM (inactive) | > 100 µM (inactive) | > 100 µM (inactive) | > 100 µM (inactive) | > 100 µM (inactive) | > 100 µM (inactive) | > 100 µM (inactive) | > 100 µM (inactive) | > 100 µM (inactive) | > 100 µM (inactive) | > 100 µM (inactive) | > 100 µM (inactive) | > 100 µM (inactive) | > 100 µM (inactive) | > 100 µM (inactive) | > 100 µM (inactive) | > 100 µM (inactive) |
| Cn1c(=O)c2c(nc3n2CCCC(=O)N3CC(O)CCl)n(C)c1=O (centres undefined) | > 100 µM (inactive) | > 100 µM (inactive) | > 100 µM (inactive) | > 100 µM (inactive) | > 100 µM (inactive) | > 100 µM (inactive) | > 100 µM (inactive) | > 100 µM (inactive) | > 100 µM (inactive) | > 100 µM (inactive) | > 100 µM (inactive) | > 100 µM (inactive) | > 100 µM (inactive) | > 100 µM (inactive) | > 100 µM (inactive) | > 100 µM (inactive) | > 100 µM (inactive) | > 100 µM (inactive) | > 100 µM (inactive) |
| COC(=O)c1c(C(=O)OC)c2ccc(-c3ccc(Cl)cc3)nn2c1C(=O)c1ccc([N+](=O)[O-])cc1 | > 100 µM (inactive) | > 100 µM (inactive) | 41.5 µM (inactive) | 39.4 µM (inactive) | 27.3 µM (inactive) | > 100 µM (inactive) | > 100 µM (inactive) | > 100 µM (inactive) | > 100 µM (inactive) | 15.3 µM (inactive) | > 100 µM (inactive) | 40.2 µM (inactive) | 50.1 µM (inactive) | 27.2 µM (inactive) | 8.83 µM (inactive) | > 100 µM (inactive) | 42.3 µM (inactive) | – | 37.2 µM (inactive) |
| CCNC(=O)C1CCCN1C(=O)C(CCCN=C(N)N)NC(=O)C(CC(C)C)NC(=O)C(Cc1c[nH]c2ccccc12)NC(=O)C(Cc1ccc(O)cc1)NC(=O)C(CO)NC(=O)C(Cc1c[nH]c2ccccc12)NC(=O)C(Cc1c[nH]cn1)NC(=O)C1CCC(=O)N1 (centres undefined) | > 100 µM (inactive) | > 100 µM (inactive) | > 100 µM (inactive) | > 100 µM (inactive) | > 100 µM (inactive) | > 100 µM (inactive) | > 100 µM (inactive) | > 100 µM (inactive) | > 100 µM (inactive) | > 100 µM (inactive) | > 100 µM (inactive) | > 100 µM (inactive) | > 100 µM (inactive) | – | > 100 µM (inactive) | > 100 µM (inactive) | > 100 µM (inactive) | > 100 µM (inactive) | > 100 µM (inactive) |
| C/C=C(\C)[C@@H](O)C(=O)O[C@@H]1CC(C(C)(C)O)[C@](C)(CCC(=O)OC)[C@H]2[C@H](OC(=O)[C@H](O)[C@H](C)CC)C[C@]3(C)C(=CC[C@H]3[C@H]3CO[C@H](C=C(C)C)C3)[C@]12C (some centres undefined) | 20.9 µM (inactive) | 35.4 µM (inactive) | 22.7 µM (inactive) | 16 µM (inactive) | – | 19.1 µM (inactive) | 22.4 µM (inactive) | 18.8 µM (inactive) | – | 19.7 µM (inactive) | 16.4 µM (inactive) | 19.3 µM (inactive) | 22.1 µM (inactive) | 18 µM (inactive) | 16.4 µM (inactive) | 20.7 µM (inactive) | 19.8 µM (inactive) | 30.8 µM (inactive) | 19 µM (inactive) |
| NNC(=O)CNc1cccc(Br)c1 | > 100 µM (inactive) | > 100 µM (inactive) | > 100 µM (inactive) | > 100 µM (inactive) | > 100 µM (inactive) | > 100 µM (inactive) | > 100 µM (inactive) | > 100 µM (inactive) | > 100 µM (inactive) | – | > 100 µM (inactive) | > 100 µM (inactive) | > 100 µM (inactive) | > 100 µM (inactive) | > 100 µM (inactive) | > 100 µM (inactive) | > 100 µM (inactive) | > 100 µM (inactive) | > 100 µM (inactive) |
| CN(/N=C(\C(=O)O)c1ccccc1)C1=NCCCCN1 | > 100 µM (inactive) | > 100 µM (inactive) | > 100 µM (inactive) | > 100 µM (inactive) | > 100 µM (inactive) | > 100 µM (inactive) | > 100 µM (inactive) | > 100 µM (inactive) | – | > 100 µM (inactive) | > 100 µM (inactive) | > 100 µM (inactive) | > 100 µM (inactive) | > 100 µM (inactive) | > 100 µM (inactive) | > 100 µM (inactive) | > 100 µM (inactive) | 94.6 µM (inactive) | > 100 µM (inactive) |
| C=CC[C@@]1([C@H](C=C)COCc2ccc(OC)cc2)CC[C@]2(C)OC(C)(C)[C@@H](c3ccccc3)N2C1=S | 60.8 µM (inactive) | 43.1 µM (inactive) | 53 µM (inactive) | 58.6 µM (inactive) | 19.1 µM (inactive) | 39.5 µM (inactive) | 71.3 µM (inactive) | 34.2 µM (inactive) | 35.2 µM (inactive) | 52.4 µM (inactive) | > 100 µM (inactive) | 31.1 µM (inactive) | > 100 µM (inactive) | 35.9 µM (inactive) | 86.7 µM (inactive) | 34.8 µM (inactive) | 40.7 µM (inactive) | – | 29 µM (inactive) |
| COCCN1C(=O)C2c3[nH]c4ccccc4c3C3CCC(C(C)(C)C)CC3C2C1=O (centres undefined) | 19.1 µM (inactive) | 18.6 µM (inactive) | 17.3 µM (inactive) | 17.2 µM (inactive) | 18.2 µM (inactive) | 22.1 µM (inactive) | – | 15.5 µM (inactive) | 19.1 µM (inactive) | > 10 µM (inactive) | 17.4 µM (inactive) | 18.4 µM (inactive) | 18.7 µM (inactive) | 16.4 µM (inactive) | 20.4 µM (inactive) | 16.7 µM (inactive) | 16.9 µM (inactive) | 23.2 µM (inactive) | 13.2 µM (inactive) |
| O=C(CC(C(=O)c1ccsc1)c1ccccc1)c1ccccc1 (centres undefined) | 28 µM (inactive) | 76.9 µM (inactive) | > 100 µM (inactive) | > 100 µM (inactive) | > 100 µM (inactive) | 74.1 µM (inactive) | 25.8 µM (inactive) | 95.9 µM (inactive) | – | > 100 µM (inactive) | 18.7 µM (inactive) | > 100 µM (inactive) | 54.2 µM (inactive) | 75 µM (inactive) | > 100 µM (inactive) | > 100 µM (inactive) | 6.5 µM (inactive) | > 100 µM (inactive) | > 100 µM (inactive) |
| CC1CCCN(CP(=O)(c2ccccc2)c2ccccc2)C1 (centres undefined) | > 100 µM (inactive) | > 100 µM (inactive) | > 100 µM (inactive) | > 100 µM (inactive) | > 100 µM (inactive) | > 100 µM (inactive) | > 100 µM (inactive) | > 100 µM (inactive) | > 100 µM (inactive) | – | > 100 µM (inactive) | > 100 µM (inactive) | > 100 µM (inactive) | 93.8 µM (inactive) | > 100 µM (inactive) | > 100 µM (inactive) | 94.4 µM (inactive) | > 100 µM (inactive) | – |
| O=C(C[n+]1ccc2ccccc2c1)c1ccc2ccc3ccccc3c2c1 | 3.23 µM (inactive) | 0.824 µM (active) | 1.31 µM (inactive) | 1.67 µM (inactive) | 1.07 µM (active) | 7.94 µM (inactive) | 4.94 µM (inactive) | 2.21 µM (inactive) | 2.6 µM (inactive) | – | 15.2 µM (inactive) | 2.39 µM (inactive) | 0.841 µM (active) | 0.959 µM (active) | 5.02 µM (inactive) | 2.04 µM (inactive) | 3.84 µM (inactive) | 2.23 µM (inactive) | 1.03 µM (active) |
